Reference: patent publication US20240287065A1, “COMPOUND AS CDK KINASE INHIBITOR AND USE THEREOF” (TYK MEDICINES (ZHENGZHOU) , INC., priority 2021, published 2024)
Where two headings read alike, the source gives them in different places.

Columns and labels:
CDK4/CycD3 = CDK4/CycD3 (Homo sapiens, UniProt P11802); assay: Enzyme activity test; type: biochemical;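 note: values come from the source column headed CDK4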
In short: (§1)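 Compounds ([…] DMSO stock) were preincubated 30 min at room temperature with enzyme, substrate and cofactor before ATP addition. The reaction ran 150 min at room temperature and was read on EZ Reader (mobility shift). Percent inhibition was calculated against DMSO and no-enzyme controls.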

CDK2/CycE1 = CDK2/CycE1 (Homo sapiens, UniProt P24941); assay: Enzyme activity test; type: biochemical;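 note: values come from the source column headed CDK2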
In short: as §1

CDK6/CycD1 = CDK6/CycD1 (Homo sapiens, UniProt Q00534); assay: Enzyme activity test; type: biochemical;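 note: values come from the source column headed CDK6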
In short: as §1

MCF-7-Palbo-R cells = assay: MCF-7-Palbo-R cell antiproliferative assay (BrdU ELISA); type: cell-based; settings: for IC50: 72 hours, BrdU; for Bottom(%): bottom of inhibition curve; for Top(%): top of inhibition curve
Description: 1. Experimental Materials • MCF-7/palbo-R • EMEM medium (ATCC, 30-2003); DMEM/F12 medium (Gibco-1 1330-032) • Fetal bovine serum (cellmax-SA21 1.02) • DMSO (SIGMA, D2650) • BrdU ELISA cell proliferation assay kit (Roche, 11647229001) • ELISA (e.g. MD-SpectraMax ID5 or EnVision)
2. Experimental protocol • 1. Cell spreading • 1) Cells were counted, the concentration of cell suspension was adjusted • 2) The MCF7/Palbo-R cell suspension was seeded in 96-well plates at […] volume to make the number of cells per well is 4000-5000; • 3) Blank control group was added with 90 μl of culture medium; • 2. […] A 3-fold serial gradient dilution was performed with 0.1% DMSO medium for a total of 9 concentrations, and the concentrations of the compounds after dilution were as follows: • 10000 nM, 3333.33 nM, 1111.11 nM, 370.34 nM, 123.45 nM, 41.15 nM, 13.72 nM, 4.57 nM, and 1.52 nM. • b) After 72 hours of compound treatment. • 1) A 10 mM of Brdu stock solution was diluted with RPMI medium and added to a 96-well plate at 20 uL/well and shaken at 350 rpm for 10 minutes. • 2) The 96 well plate was placed back into the incubator for 1 or 2 hours. • 3) After the medium was removed from the 96-well plate, 200 ul/well of Fixation/Denaturation solution was added and incubated for 30 minutes at room temperature. • 4) The fixation solution was removed and 100 ul of peroxidase-coupled anti-Brdu antibody solution (antibody dilution prepared at 1:100 dilution) was added, • and incubated at 350 rpm for 1 hour at room temperature. • 6) The 96-well plate was washed three times with 300 ul/well of PBS. • 8) 100ul of peroxidase substrate solution was added and shaken at 350 rpm for about 10-20 minutes at room temperature, • until the DMSO-treated cell control wells turn a medium blue color. If a color is too dark, it will cause the absorbance value to out of the reading range. • 9) The reaction was terminated by the addition of 25 ul of 1 M sulfuric acid. Shake to ensure uniform color. • 10) The absorbance at 450 nm was recorded. • 3. Data analysis • The inhibition rate is calculated using the following equation:
IR (%)=(1−(RLU compound−RLU blank)/(RLU control−RLU blank))*100%.

CDK6/CycD1, sequence (Q00534 whole entry, species assumed): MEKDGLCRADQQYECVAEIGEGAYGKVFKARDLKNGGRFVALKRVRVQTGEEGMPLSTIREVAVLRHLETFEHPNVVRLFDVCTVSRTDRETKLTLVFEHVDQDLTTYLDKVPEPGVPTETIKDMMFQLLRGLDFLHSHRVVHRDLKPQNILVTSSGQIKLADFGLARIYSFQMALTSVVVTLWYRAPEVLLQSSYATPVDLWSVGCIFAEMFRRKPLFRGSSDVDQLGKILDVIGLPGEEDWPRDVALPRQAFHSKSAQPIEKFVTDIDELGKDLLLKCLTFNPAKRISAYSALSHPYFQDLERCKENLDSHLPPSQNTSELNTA
CDK6/CycD1, sequence (P24385 whole entry partner, species assumed): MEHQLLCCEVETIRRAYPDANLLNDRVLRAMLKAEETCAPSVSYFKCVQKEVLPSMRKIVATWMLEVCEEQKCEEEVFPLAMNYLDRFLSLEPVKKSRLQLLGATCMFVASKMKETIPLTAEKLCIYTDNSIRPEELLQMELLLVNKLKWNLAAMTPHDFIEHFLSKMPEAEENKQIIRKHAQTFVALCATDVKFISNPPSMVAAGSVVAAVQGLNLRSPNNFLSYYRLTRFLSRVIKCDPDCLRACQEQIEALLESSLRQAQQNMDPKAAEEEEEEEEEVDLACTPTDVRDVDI
CDK4/CycD3, sequence (P11802 whole entry, species assumed): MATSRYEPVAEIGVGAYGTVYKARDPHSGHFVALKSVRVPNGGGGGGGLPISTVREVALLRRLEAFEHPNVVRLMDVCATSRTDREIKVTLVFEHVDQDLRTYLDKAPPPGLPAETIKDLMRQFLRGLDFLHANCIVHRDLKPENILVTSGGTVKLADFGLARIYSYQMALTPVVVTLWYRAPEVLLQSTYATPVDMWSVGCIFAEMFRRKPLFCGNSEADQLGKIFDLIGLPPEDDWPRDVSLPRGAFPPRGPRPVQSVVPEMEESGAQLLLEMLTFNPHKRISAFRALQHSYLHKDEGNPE
CDK4/CycD3, sequence (P30281 whole entry partner, species assumed): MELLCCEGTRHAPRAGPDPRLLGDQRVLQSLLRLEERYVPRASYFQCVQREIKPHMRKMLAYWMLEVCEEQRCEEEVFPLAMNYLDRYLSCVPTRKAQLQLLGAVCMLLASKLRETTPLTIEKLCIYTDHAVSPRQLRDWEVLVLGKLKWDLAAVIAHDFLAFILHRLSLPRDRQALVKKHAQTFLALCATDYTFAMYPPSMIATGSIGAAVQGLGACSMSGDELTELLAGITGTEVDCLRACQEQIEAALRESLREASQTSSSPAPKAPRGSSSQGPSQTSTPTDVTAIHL

C[C@@]1(O)CCC[C@H]1n1c(=O)c(OC(F)F)cc2cnc(NC3CCN(S(C)(=O)=O)CC3)nc21 [Example 3]
IC50 (CDK4/CycD3): < 10 nM
IC50 (CDK2/CycE1): < 10 nM
IC50 (CDK6/CycD1): < 10 nM
IC50 (MCF-7-Palbo-R cells; read-out: AbsIC50): 36 nM
IC50 (MCF-7-Palbo-R cells; read-out: ReIC50): 38 nM
Bottom(%) (MCF-7-Palbo-R cells): 6.317%
Top(%) (MCF-7-Palbo-R cells): 98.857%

C[C@@]1(O)CCC[C@H]1n1c(=O)c(C(F)F)cc2cnc(NC3CCN(S(C)(=O)=O)CC3)nc21 [PF-06873600, reference compound]
IC50 (MCF-7-Palbo-R cells; read-out: AbsIC50): 54 nM
IC50 (MCF-7-Palbo-R cells; read-out: ReIC50): 49 nM
Bottom(%) (MCF-7-Palbo-R cells): 7.487%
Top(%) (MCF-7-Palbo-R cells): 98.896%
